Data set [1] deals with arthrosis in rabbits induced by the intraarticular administration of vitamin A. Put plainly: Vitamin A arthrosis in rabbits (chronic inflammation model, oral administration). It is filed as in vivo, rabbit (white New Zealanders). Conditions: for clinical signs of arthrosis (disturbances of movement, dragging of the rear legs): 7 rabbits. Here is the method: The effectiveness of diacetylrhein was determined in chronic inflammation models after oral administration.
The following experimental models were used: cotton pellet granuloma in rats and arthrosis in rabbits induced by the intraarticular administration of vitamin A.
An arthrosis-like joint change was initiated in two groups each of 10 rabbits (white New Zealanders) by means of three intraarticular injections of 30,000 IU of vitamin A over the course of 9 days. 56 days later, 10 animals were treated with 3 mg of diacetylrhein/kg/day for 8 weeks.
Furthermore, the curative action of diacetylrhein was compared with that of acetylsalicylic acid on each of 7 rabbits which, after 6 days pre-treatment with three times 10,000 IU vitamin A and a 26 day treatment-free interval for 8 weeks, received either 5 mg of diacetylrhein/kg/day (experimental group), 15 mg of acetylsalicylic acid/kg/day (positive control group) or remained untreated (negative control group). […] In the negative control group, during the following 8 weeks, the clinical signs of a manifest arthrosis increased.

Data set [2] deals with osteoarthrosis of the spine and of the knee. Put plainly: Clinical open running study with control (physiotherapy). It is filed as in vivo, human. Here is the method: 2. In an open running study with control, there was investigated the action of diacetylrhein against osteoarthrosis of the spine and of the knee in 70 patients (35/35). The dosage administered was 100 mg of diacetylrhein per day. The period of treatment was 60 days and the period of observation was 75 days. The test parameters were pain and movement limitation. The parameters were evaluated according to a score system. The control group comprised 35 patients in the case of which exclusively physiotherapeutic measures were carried out. Physiotherapy was also carried out in the diacetylrhein treatment group.

The test system of data set [3] is mucosal lesions in patients with osteoarthrosis. Put plainly: Clinical randomised double blind double dummy compatibility study (oesophagogastroduodenoscopic findings). Format: in vivo, human. Conditions: after 4 weeks. As for the experimental part:
4. The action of diacetylrhein was investigated in 23 patients (12/11) with osteoarthrosis in a randomised double blind study using the “double dummy technique” (compatibility study). The dosage administered was 50 mg of diacetylrhein twice daily and 250 mg of naproxen three times daily. The period of treatment was 4 weeks. The test parameters were then oesophagogastroduodenoscopic findings before and after the therapy. Only patients with normal mucosal findings or with slight mucosal lesions (grade 1) were used in the study.

The subject of data set [4] is cotton pellet granuloma. Put plainly: Cotton pellet granuloma in rats (chronic inflammation model, oral administration). Format: in vivo, rat. As for the experimental part:
The effectiveness of diacetylrhein was determined in chronic inflammation models after oral administration. The following experimental models were used: cotton pellet granuloma in rats and arthrosis in rabbits induced by the intraarticular administration of vitamin A. a) Cotton pellet granuloma in rats. Young sexually mature rats (n=10) were given 25, 50 or 100 mg diacetylrhein/kg or 5 mg indomethacin/kg or 100 mg acetylsalicylic acid/kg daily for 5 days. A control group only treated with water was also used. Implantation of the pellets took place on the first day of treatment.

In data set [5] the test system is gastric mucosa. Put plainly: Gastric mucosa changes in the rat. It is filed as in vivo.
Data set [6] in a line: in vivo. Conditions: rat, mouse, cat.
The test system of data set [7] is localised arthrosis. Put plainly: Clinical single blind crossover study against naproxen. It is filed as in vivo, human. Conditions: 20 patients. Here is the method:
3. The action of diacetylrhein in the case of localised arthrosis in 20 patients was investigated in a single blind crossover study against naproxen. The patients were divided up into two groups: in the first group, initially 50 mg of diacetylrhein was administered twice daily for 20 days. Subsequently, there followed a three day wash-out phase and a further treatment with 250 mg of naproxen twice daily for a further 20 days. In the second group, the reverse sequence was used. The period of treatment was, in all, 43 days. The test parameters of pain, compression pain, passive movement pain, function limitation and swelling were determined according to a score system.

In data set [8] the test system is coxarthrosis and gonarthrosis. Put plainly: Clinical double-blind study against naproxen with subsequent placebo after-treatment. Format: in vivo, human. Conditions: for improvement of all test parameters (pain and movement symptoms score, function limitation, compatibility) vs initial values: patients, 60 days. As for the experimental part: 1. The action of diacetylrhein was investigated in coxarthrosis and gonarthrosis in 95 (49/46) patients in a double-blind study against naproxen and subsequent placebo after-treatment. The dosage administered was 50 mg of diacetylrhein twice daily or 750 mg of naproxen daily. The period of treatment was 60 days after a 7 day wash-out phase. The subsequent placebo treatment extended over 60 days. Test parameters were the pain and movement symptoms according to a score scale, function limitation and compatibility.

Where [9] appears, read: 50 mg of diacetylrhein twice daily.
Setting [10] is: crossover study, 43 days in all.
[11] abbreviates: 250 mg of naproxen three times daily.

Molecules are shown by their SMILES.

In the case of `CC(=O)Oc1ccccc1C(=O)O` [acetylsalicylic acid, reference compound], in data set [1] (15 mg of acetylsalicylic acid/kg/day for 8 weeks (positive control group)), the “clinical signs of arthrosis (disturbances of movement, dragging of the rear legs)” value is on record as “improved significantly”.

As for `CC(=O)Oc1cccc2c1C(=O)c1c(OC(C)=O)cc(C(=O)O)cc1C2=O` [diacetylrhein], the “pain and movement limitation (score system), treatment group vs control group” value in data set [2] (35/35 patients, 100 mg per day plus physiotherapy for 60 days vs physiotherapy only) is reported as “statistically significant superiority”. The “effect after discontinuation of the treatment” value in data set [2] (period of observation 75 days, treatment 60 days, 100 mg per day) is “continuing therapeutic effect (hang-over effect)”. In data set [3] (setting [9]), the “number of cases with mucosal lesions of grade 2 (endoscopic findings)” value is given as “one” and the “share of patients with mucosal lesions of grade 2 (endoscopic findings)” value turned out to be 10%. For the same molecule, the “Fresh and dry weights of the granuloma” value in data set [4] (rats (n=10), oral, 25, 50 or 100 mg diacetylrhein/kg daily for 5 days, in comparison with water-treated control group) was “significant and clearly dosage-dependent reduction”. In addition, the “action on granuloma weights compared with reference drugs” value in data set [4] (rats, oral, 100 mg diacetylrhein/kg daily for 5 days vs 5 mg indomethacin/kg or 100 mg acetylsalicylic acid/kg) is recorded as “corresponded to about the action of 5 mg indomethacin or of 100 mg acetylsalicylic acid”. The “weights of the thymus and adrenals” value in data set [4] (rats, oral, daily treatment for 5 days) was “did not change”. Also, the “erosions of the gastric mucosa” value in data set [5] (single administration of 400 mg/kg) is “did not give rise to any erosions”. In addition, the gastric mucosal damage result in data set [5] (twice daily 100 mg/kg over the course of 3 days) is given as “did not initiate any mucosal damage”. In addition, in data set [6], the LD50 (as a rule, the dose expected to kill half of the subjects tested) was in the range of 119 to 339 mg/kg. Moreover, the LD50 in data set [6] (po) was in the range of 1900 to 7900 mg/kg. In data set [7] (setting [10]), the clinical laboratory parameters result is “no changes” and the side effects entry is recorded as “No noteworthy side effects”. Also, the “pain, compression pain, passive movement pain, function limitation and swelling (score system), vs naproxen” value in data set [7] (crossover, 50 mg diacetylrhein twice daily 20 days vs 250 mg naproxen twice daily 20 days) is on record as “superiority”. Besides, in data set [1] (5 mg of diacetylrhein/kg/day for 8 weeks after 3 x 10,000 IU vitamin A and 26 day treatment-free interval), the “clinical signs of arthrosis (disturbances of movement, dragging of the rear legs)” value is on record as “improved significantly”. For the same molecule, the “macroscopically and microscopically recognisable joint changes” value in data set [1] (rabbits, 3 mg/kg/day for 8 weeks starting 56 days after 3 x 30,000 IU vitamin A, in comparison with control group) is “significantly reduced”. In data set [8] (30 days after discontinuation of diacetylrhein, 5% level), the “night pain and pressure pain after discontinuation, vs naproxen/placebo collective” value is “difference was also verified”. For the same molecule, in data set [8] (days 90 and 120, under subsequent placebo, P<0.01), the “spontaneous pain and active and passive movement pain after discontinuation, vs naproxen/placebo collective” value is given as “statistically significant superiority”. Also, the “improvement of all test parameters (pain and movement symptoms score, function limitation, compatibility) vs initial values” in data set [8] (50 mg of diacetylrhein twice daily, P<0.01) is “statistically significant rate of improvement”.

As to `COc1ccc2cc([C@H](C)C(=O)O)ccc2c1` [naproxen, reference compound], in data set [3] (setting [11]), the “number of patients with mucosal lesions of grade 2, 3 and 4 (endoscopic findings)” value amounted to 5 patients; the “share of patients with mucosal lesions of grade 2, 3 and 4 (endoscopic findings)” value is reported as 50%. In addition, the “improvement of all test parameters (pain and movement symptoms score, function limitation, compatibility) vs initial values” in data set [8] (750 mg of naproxen daily, P<0.05) was “statistically significant rate of improvement”.
